We go through 72 compounds from PubChem BioAssay AID179 (DTP/NCI, 2004).

For this test, the system named is CEM cells HIV-1 protection, formazan growth assay. Nature of the test: NCI AIDS Antiviral Assay. As to conditions: for IC50: measured here: growth of uninfected CEM cells. In outline: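 Protection of CEM cells against HIV-1 measured as cell growth via soluble formazan read-out, with five concentrations tested on both infected and uninfected cells; failure to protect may reflect toxicity.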

The structures appear in SMILES notation. Several values for one entry are separate records, joined by “and”; a condition that tells them apart may be missing. Equal entries are not always repeated. Activity calls are given as the source filed them.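 Rule for the calls: active = compounds giving half or more protection of infected cells from virus-caused growth loss, again on retest; inactive = the rest.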 Where a SMILES comes first, the peptide text is derived from it. Bridges are numbered along the chain shown (N, C = ends). [ ]: non-standard residue; d: D form. The star is where a group is joined. Cbz = O=C(OCc1ccccc1)*; Aib = CC(C)(N)C(=O)O; OBn = c1ccc(CO*)cc1; βAla = NCCC(=O)O A value given as a limit tells only on which side of the number the result lay.

Turning to `C=C(CN)CO[Si](C)(C)C(C)(C)C`, the EC50 was above 200 µM and the IC50 was found to be 110 µM. The like results for `O=Cc1cc(C(=O)OCc2ccccc2)n(S(=O)(=O)c2ccccc2)c1` were, in that order, above 200 µM and 17.4 µM.

As for `CC(=O)NCCSSCc1ccccc1CS(=O)O`, the EC50 is above 200 µM and the concentration for half-maximal inhibition (IC50) stood at 105 µM.

`CCCN(CCC)C(=S)Sc1nc(C)nc(N2CCN(c3nc(C)nc(SC(=S)N(CCC)CCC)c3[N+](=O)[O-])CC2)c1[N+](=O)[O-]`: the EC50 is above 200 µM and the IC50 is 2.04 µM. `CC1(C)NC(=O)C(NC(=O)C(CC(=O)OCc2ccccc2)NC(=O)OCc2ccccc2)CCCCNC(=O)CCNC1=O` (configuration not stated) (Cbz-D(OBn)K[Aib][βAla]; lactam 2-C; configuration not given here): the EC50 was above 200 µM and the half-inhibitory concentration (IC50) was above 200 µM. Consider `COc1ccc(/C=C2/C[N+](C)(C)C/C(=C/c3ccc(OC)cc3)C2=O)cc1`, for which the EC50 was above 513 µM and the concentration for half-maximal inhibition (IC50) turned out to be 36.3 µM. In the same order, the values of `CC(SCCCCCCCCCCCCSC(C)C(=O)O)C(=O)O` (configuration not stated) are above 79.4 µM and above 79.4 µM. `C=C1CC[C@@](C)(c2ccc(CO)cc2)C1C` (some centres not stated): the outcome was inactive.

Regarding `COc1cc2c(c(OC)c1OC)-c1ccc(OC)c(=O)cc1C(NC(=O)CCCCCNc1ccc(N=[N+]=[N-])cc1[N+](=O)[O-])CC2` (configuration not stated), the EC50 was above 200 µM and the IC50 was 0.0631 µM. For the compound `O=C(CC(=O)Nc1ccccc1Cl)NNC(Sc1ccccc1)c1cc(N=Nc2ccc(Br)cc2)ccc1O` (configuration not stated), the EC50 was above 100 µM and the half-maximal inhibitory concentration (IC50) was determined as 1.91 µM.

Turning to `O=C(N/N=C/c1ccccn1)c1ccccc1[O-].O=C(N/N=C/c1ccccn1)c1ccccc1[O-].[Co+2]`, the EC50 was above 200 µM and the IC50 turned out to be 33.9 µM.

On to `COc1ccc2c(c1)N(CC(C)CN(C)C)c1ccccc1S2` (configuration not stated), for which the EC50 was above 200 µM and the IC50 was above 200 µM.

For the compound `Nc1c(N=Nc2ccc([N+](=O)[O-])cc2)c(S(=O)(=O)O)cc2cc(S(=O)(=O)O)c(N=Nc3ccc(-c4ccc(N=Nc5ccc(O)cc5)cc4)cc3)c(O)c12`, the EC50 is above 100 µM and the IC50 worked out at 15.1 µM.

On to `COc1ccc2c(c1)nc1n2C(c2c(Cl)cccc2Cl)SC1` (configuration not stated), for which the EC50 is above 200 µM and the IC50 worked out at 33.1 µM.

As for `CCCCCCCCCCCCCCCCCC(=O)OCC(COC1OC(COS(=O)(=O)O)C(O)C(O)C1O)OC(=O)CCCCCCCCCCCCCCCCC` (configuration not stated), the outcome was inactive.

For `CCOC(=O)N1C/C(=C\c2ccccc2)C(=O)/C(=C/c2ccccc2)C1`, the EC50 was above 100 µM and the half-inhibitory concentration (IC50) was found to be 1.82 µM. `Nc1cccc(N=Nc2c(S(=O)(=O)O)cc3cc(NC(=O)Nc4ccc5c(O)c(N=Nc6cccc(N)c6)c(S(=O)(=O)O)cc5c4)ccc3c2O)c1`: the concentration giving a half-maximal response (EC50) is 13.5 µM and the IC50 was above 100 µM.

As to `C1CN2N3CCCC23C1` (configuration not stated), the EC50 is above 2000 µM and the IC50 was above 2000 µM. As to `COc1cccc(C(=O)C2C(=O)N(C)CCc3ccccc32)c1OC` (configuration not stated), the EC50 was above 148 µM and the IC50 is above 148 µM. On to `COc1ccc(C2SC(N)=Nc3c2c(C)nn3C(=O)c2ccc(Cl)cc2)cc1` (configuration not stated), for which the EC50 is above 200 µM and the IC50 came to 151 µM. With `c1ccc([P+](Cc2nc3ccccc3[nH]2)(c2ccccc2)c2ccccc2)cc1`, the EC50 is above 200 µM; the half-inhibitory concentration (IC50) was 38.9 µM and 46.8 µM. `CCN(CC)CCC(=O)NC1c2ccccc2Oc2ccccc21`: the EC50 is above 398 µM and the IC50 stood at 219 µM. In the same order, the values of `COc1ccc(N2C(=O)CSC2c2c[nH]c3ccccc23)cc1` (configuration not stated) are above 22.4 µM and above 22.4 µM. Turning to `OC1C2CCCC1C1(CCCCC1)C1CCCCC21O` (configuration not stated), the outcome was inactive. For the compound `N#C/C(=C\c1ccccc1)c1ccc(F)cc1F`, the EC50 was above 200 µM and the IC50 turned out to be 37.2 µM.

As to `C[C@H]1CCC/C=C/[C@@H]2C[C@H](OC(=O)CN(C)C)C[C@H]2[C@H](O)/C=C/C(=O)O1`, the EC50 was above 2 µM and the IC50 is 0.339 µM.

For `CCOP(=O)(OCC)/C(C#N)=C/c1nccn1C`, the result was inactive. Take `CCCCCCCCCC(=O)Oc1cccc2onc(C)c12`: the EC50 was above 24 µM and the IC50 was above 24 µM.

On to `c1ccc(N2CCN(c3ccccn3)CC2)nc1`, for which the EC50 was above 100 µM and the IC50 is above 100 µM.

As for `CC1=CC(C)C(=O)N(C)C(C)=C1` (configuration not stated), the EC50 was above 1510 µM and the IC50 amounted to 457 µM. For `C=CCn1c(-c2ccc(Cl)cc2)csc1=Nc1ccccc1OC`, the EC50 is above 200 µM and the IC50 is above 200 µM. As to `O=c1cc(O)cc2n1CCC2`, the EC50 is above 1660 µM and the IC50 was above 1660 µM.

In the case of `OCC(O)C1OC2CC1Nc1ccccc1N2` (configuration not stated), the EC50 was above 200 µM and the IC50 worked out at 97.7 µM.

As to `C=C(Cc1ccc2c(c1)OCO2)C(=C)Cc1ccc(O)cc1O`, the EC50 was above 200 µM and the IC50 was 55 µM. With `COc1ccc2c(c[n+](C)c3c4cc5c(cc4ccc23)OCO5)c1OC`, the EC50 was above 3.24 µM and the IC50 worked out at 0.372 µM.

On to `O=C(O)CCSCCCCCCCCCCSCCC(=O)O`, for which the EC50 was above 74.1 µM and the half-maximal inhibitory concentration (IC50) was above 74.1 µM. On to `O=C(CC(=O)c1cccc([N+](=O)[O-])c1)C(=O)Nc1ccccc1`, for which the EC50 is above 417 µM and the 50% inhibitory concentration (IC50) is above 417 µM. With `NC(CCCC(N)P(=O)(O)O)C(=O)O` (configuration not stated), the outcome was inactive.

For `O=C(O)CCCCSCCCCC(=O)O`, the EC50 is above 1070 µM and the concentration for half-maximal inhibition (IC50) was above 1070 µM. Regarding `CC1(C)C(=O)NC(=O)c2ccccc21`, the EC50 was above 200 µM and the concentration for half-maximal inhibition (IC50) was above 200 µM. Turning to `O=c1[nH]nc(-c2ccccc2)n1-c1ccncc1`, the EC50 was above 200 µM and the half-maximal inhibitory concentration (IC50) is above 200 µM. As to `CC(=O)C1C(=O)C(=O)N(c2ccc([N+](=O)[O-])cc2)C1=O` (configuration not stated), the EC50 is above 200 µM and the half-inhibitory concentration (IC50) was above 200 µM. As for `CCCC1CC(=O)NC(=O)C1C(=O)OC(C)(C)C` (configuration not stated), the EC50 is above 200 µM and the half-maximal inhibitory concentration (IC50) is above 200 µM. As to `C=CCN=C1N=C(CC(=O)OCC)CS1`, the outcome was inactive.

For `CCOc1cc2c(cc1O)/C(=N\OC)C[C@@H]1[C@@H]2CC[C@]2(C)[C@@H](O)CC[C@@H]12`, the EC50 is above 200 µM and the IC50 was determined as 0.0724 µM. With `CC(=O)N(c1ccccc1)[Si](C)(C)C`, the result was inactive. On the same count and under the same terms, then `O=C(NCc1ccccc1)OCCO`, with “inactive”; and `CC1CC[C@@]2(O)C(CCCC2(C)C)[C@]1(C)CCc1ccoc1` (some centres not stated), with “inactive”.

With `O=S(=O)(O)c1ccc(-c2nnc(-c3ccccn3)nc2-c2ccc(S(=O)(=O)O)o2)o1`, the EC50 was above 200 µM and the half-maximal inhibitory concentration (IC50) is above 200 µM. Regarding `COC(=O)[C@@]1(C)C(=O)CC[C@@H]1C=O`, the EC50 was above 251 µM and the concentration for half-maximal inhibition (IC50) was 50.1 µM. For `[O-]c1c2c(nn1-c1ccccc1)c1ccccc1c[n+]2Cc1ccccc1`, the result was inactive. In the case of `O=C(CCC[n+]1ccccc1)Sc1ccccc1C(=O)NCc1ccc2c(c1)OCO2`, the EC50 was above 16.6 µM and the concentration for half-maximal inhibition (IC50) turned out to be 3.39 µM. On to `Nc1cnc(Nc2cccc3ccccc23)o1`, for which the EC50 is above 200 µM and the IC50 was above 200 µM. On to `CCOc1ccc2nc3nc(=O)[nH]c(C)c3c(NC(C)(CO)CO)c2c1`, for which the EC50 was above 200 µM and the IC50 is above 200 µM. In the case of `CC[C@]1(Cc2ccc(OC)c(OC)c2)C=[N+]([O-])O[C@H](OC2CCCC2(c2ccccc2)c2ccccc2)[C@@H]1OC(=O)C(C)(C)C` (some centres not stated), the EC50 is above 200 µM and the half-maximal inhibitory concentration (IC50) was 1.17 µM.

In the case of `S=C(NC1CCCCC1)SSSC(=S)NC1CCCCC1`, the EC50 is above 200 µM and the concentration for half-maximal inhibition (IC50) was 27.5 µM. In the case of `COC(=O)C(Cc1ccc(N(C)C)cc1)(NC(=O)c1ccccc1)P(=O)(OC)OC` (configuration not stated), the EC50 is above 417 µM and the half-inhibitory concentration (IC50) worked out at 398 µM. As to `O=C(CO)C1CC2C=CC1C2` (configuration not stated), the result was inactive. Consider `O=C(CSc1nnc(Cc2ccccc2)o1)Nc1ccc(Cl)cc1`, for which the EC50 was above 100 µM and the IC50 is 72.4 µM. Consider `CC(O)C(NC(=O)C(CCCCN)NC(=O)C(CC(=O)O)NC(=O)C(N)Cc1ccccc1)C(=O)NC(CO)C(=O)NC(CC(N)=O)C(=O)NC(CO)C(=O)N1CCCC1C(=O)NC(Cc1ccc(O)cc1)C(=O)NC(Cc1cnc[nH]1)C(=O)NC(Cc1ccccc1)C(=O)O` (configuration not stated) (H-FDKTSNSPYHF-OH; configuration not given here), for which the EC50 was above 46.8 µM and the half-maximal inhibitory concentration (IC50) was above 46.8 µM. As for `C=C(C)C#CC(O)(C(=O)OC1CCN(C)CC1)C(C)C` (configuration not stated), the EC50 is above 200 µM and the 50% inhibitory concentration (IC50) was above 200 µM. On to `CCOC(=O)C1=C(C)NC(=S)NC1c1ccccc1` (configuration not stated), for which the EC50 was above 93.3 µM and the half-maximal inhibitory concentration (IC50) was above 93.3 µM.

For `CSc1nc2c(N)ncnc2n1C`, the EC50 is above 200 µM and the half-inhibitory concentration (IC50) was above 200 µM.

In the case of `CCOC(=O)CNC1C(NC(C)=O)C(OC)OC2COC(c3ccccc3)OC21` (configuration not stated), the outcome was inactive. Take `COC(=O)/C(C#N)=C(/NCCN)Nc1ccccc1`: the EC50 is above 200 µM and the 50% inhibitory concentration (IC50) is above 200 µM. For `COc1ccc(/C=C(\NC(=O)c2ccccc2)C(=O)NN(C)c2ccnc3cc(Cl)ccc23)cc1OC`, the EC50 was above 200 µM and the IC50 was 56.2 µM. Take `Brc1ccc2[nH]c3nc(N/N=C/c4cccs4)nnc3c2c1`: the EC50 was above 200 µM and the half-inhibitory concentration (IC50) was above 200 µM.

As to `S=C(SSC(=S)N1CCOCC1)N1CCOCC1`, the EC50 is above 20 µM and the IC50 was found to be 0.724 µM. `CC(=O)NS(=O)(=O)c1ccc(NC(=O)c2ccccc2SC(=O)CCCC[n+]2ccccc2)cc1`: the EC50 is 1.78 µM and the 50% inhibitory concentration (IC50) is above 200 µM. Turning to `O=[n+]1cnn([O-])c2ccccc21`, the EC50 was above 200 µM and the half-maximal inhibitory concentration (IC50) amounted to 3.63 µM. For the compound `Cc1ccc(NC(=O)CC/C(CC(=O)C(C)(C)C)=N/NC(=O)C(N)=O)cc1C`, the EC50 is above 324 µM and the IC50 is above 324 µM. Consider `CC(=O)OC1/C=C(\C)C(OC(C)=O)C/C=C(/C)CCC2C(/C=C/C1=O)C2(C)C` (configuration not stated), for which the EC50 was above 66.1 µM and the IC50 was above 66.1 µM.
